# Data: US20090005424A9, “Composition and Method for Treating Fibrotic Diseases” (priority 2005, published 2009)
# B1: γ-interferon: γ-interferon given i.m. 50,000 unit daily to disinfected mice (protein, UniProt P01580 23-155, looked up)
# Interferon gamma: HGTVIESLESLNNYFNSSGIDVEEKSLFLDIWRNWQKDGDMKILQSQIISFYLRLFEVLKDNQAISNNISVIESHLITTFFSNSKAKKDAFMSIAKFEVNNPQVQRQAFNELIRVVHQLLPESSLRKRKRSRC
# Key:
# [1] = system: ICR mice injected with bleomycin; experiment: Bleomycin-induced mouse pulmonary fibrosis, histological score of lung tissue; type: in vivo; conditions: AKF-PD and PFD 500 mg/kg, captopril 12.5 mg/kg by gavage day 1 to 28, Szapiel's method
# Experimental: Under regular care condition, 7-10 weeks old, male, institute of cancer research (ICR) mice, weight 28-39 g, were randomly grouped as normal control, disease, disease/AKF-PD, disease/PFD and disease Captopril group.
# Control group was injected with normal saline once day from day 2 to 15 days. Disease, disease/AKF-PD, disease/PFD and disease/captopril groups were injected with bleomycin once day from day 2 to 15. Control and disease groups were given 0.5% CMC by gavage once a day from day 1 to day 28. 500 mg/kg of AKF-PD CMC suspension and PD CMC suspension and 12.5 mg/kg captopril in saline were administered to respective groups by gavage once day from day 1 to day 28. All animals were sacrificed on day 29 and their lungs were removed for pathological (HE staining) examination.
# Histological scoring for the lung tissue was done according Szapiel's method.
# Kidney Fibroblast = experiment: MTT proliferation assay, mouse kidney fibroblast; type: cell-based
# Experimental: (§1) Cell proliferation was measured by MTT assay. DMEM with 10% fetal serum was used as cell culture medium. The cells were prepared in suspension (1×10^5/ml), and 100 μL of the suspension was transferred to each well of a 96 wells plate. Once the cells were attached to the plastic, the culture was changed to serum free medium and continued for another 24 hours. The serum free medium was aspirated, and various concentrations of 1-(3′-fluorophenyl)-5-methyl-2(1H)-pyridone (AKF-PD) 1-(3′-bromophenyl)-5-methyl-2(1H)-pyridone (AKF-BR) or PIRFENIDONE (PFD) in 10% serum medium were added into each well with 5 replicates for each concentration. The cells were stained with MTT (10 μL per well) at 24, 48, and 72 hours post drug treatment. After 4 hrs of incubation, the medium with MTT was aspirated from each well. One hundred μL MTT solvent was added to each well for 15 min. The dissolved MTT was then measured with a plate reader at 570 nm.
# [2] = system: Rat Pulmonary Fibroblasts; experiment: MTT proliferation assay, rat pulmonary fibroblasts; type: cell-based
# Experimental: as §1, with “and incubated” for “and continued”, “hours. Then, the” for “hours. The”, “(AKF-PD) or 1-(3′-bromophenyl)-5-Methyl-2(1H)-Pyridone” for “(AKF-PD) 1-(3′-bromophenyl)-5-methyl-2(1H)-pyridone (AKF-BR)”, “24, or 48” for “24, 48, and 72”, “15 min, and the” for “15 min. The”, “was” for “was then”
# fibroblast = experiment: Inhibition of fibroblast, side-by-side comparison of substituents; type: cell-based; conditions: structural formula II, n=1
# [3] = system: SD rat, Unilateral Ureteral Obstruction (UUO) model; experiment: Rat UUO model of renal interstitial fibrosis, histological score (Example 8); type: in vivo; conditions: UUO rats; AKF-PD 500 mg/kg/d, Enalapril 10 mg/kg/d by gavage; 14 days post surgery; Radford's method
# Experimental: Anti-fibrotic effect of AKF-PD was tested on a SD rat model for renal interstitial fibrosis induced by surgical ligation of single side ureter (Unilateral Ureteral Obstruction, UUO, model). Eight weeks old male SD rats (180 g˜220 g) were randomly divided into sham surgical group, disease model group, Enalapril (10 mg/kg/d) group and AKF-PD (500 mg/kg/d) group. […] The animals of the sham surgical group experienced the same surgical procedure except the ligation step. The respective drugs were administrated by gavage to rats in the groups of Enalapril and AKF-PD from one day prior to the procedure to 14 days post surgical procedure. Normal saline was administrated in a similar fashion to the rats in the groups of disease model and sham surgical. The animals were sacrificed 14 days after surgical procedure and their left kidney were removed for pathological (HE staining) examination. Histological scoring for interstitial compartment was done according to Radford's method (Radford et al., Predicting renal outcome in IgA nephropathy. J. Am. Soc. Nephrol. 8: 199-207(1997)).
# [4] = system: Kun Ming (KM) mice infected with Schistosoma miracidium; experiment: Schistosomial liver fibrosis in Kun Ming mice, egg granuloma area and immunohistology; type: in vivo; conditions: all after Pyquiton 650 mg/kg 4 days, AKF-PD 500 mg/kg daily gavage, γ-interferon 50,000 unit daily i.m., 8 weeks
# From the text: Kun Ming (KM) mice were infected with Schistosoma miracidium to induce schistosomial liver fibrosis. […] Ten Schistosoma miracidium were placed on shaved abdominal skin of each mouse for infection. […] Five hundred mg/kg AKF-PD were given daily by gavage to the disinfected mice of infected/AKF-PD group. The disinfected mice were given (i.m.) 50,000 unit γ-interferon daily. […] Drug or normal saline treatment was continued for 8 weeks. All mice were sacrificed one week after discontinue of drug treatment, and the left lobe of liver from each mouse was taken for pathological examination. Examination of HE-stained slices of liver tissue were carried out as follows. In general, after 16 weeks of Schistosoma miracidia infection, the area of schistosomo egg granuloma would directly correlate to the severity of liver fibrosis. Therefore, the area of schistosomo egg granuloma was measured using a high-resolution, color pathology graphic analyzer (HPIAS-1000). The sum of area of 5 granuloma with abundant eggs and the sum of area of 5 granuloma with few eggs were measured for each slice.
molecule,measurement,setting,value
C[C@H](CS)C(=O)N1CCC[C@H]1C(=O)O [Captopril],"Histological Score for Lung Tissue, Mean",[1],2.7143
"Cc1ccc(=O)n(-c2cccc(Br)c2)c1 [AKF-BR, 1-(3′-bromophenyl)-5-methyl-2(1H)-pyridone]",inhibition of proliferation of kidney fibroblast,Kidney Fibroblast,capable of inhibiting the proliferation of kidney fibroblast
same,Optical Density at 570 nm,"Kidney Fibroblast; 100 μg/ml, 24 h",0.5937 ± 0.0307
same,Optical Density at 570 nm,"Kidney Fibroblast; 100 μg/ml, 48 h",0.5811 ± 0.0161
same,Optical Density at 570 nm,"Kidney Fibroblast; 100 μg/ml, 72 h",0.5363 ± 0.0158
same,Optical Density at 570 nm,"Kidney Fibroblast; 500 μg/ml, 24 h",0.5895 ± 0.0253
same,Optical Density at 570 nm,"Kidney Fibroblast; 500 μg/ml, 48 h",0.5418 ± 0.0221
same,Optical Density at 570 nm,"Kidney Fibroblast; 500 μg/ml, 72 h",0.4731 ± 0.0249
same,Optical Density at 570 nm,"Kidney Fibroblast; 1000 μg/ml, 24 h",0.5723 ± 0.0254
same,Optical Density at 570 nm,"Kidney Fibroblast; 1000 μg/ml, 48 h",0.5192 ± 0.0178
same,Optical Density at 570 nm,"Kidney Fibroblast; 1000 μg/ml, 72 h",0.4161 ± 0.0249
same,order of inhibitory effect,Kidney Fibroblast; kidney fibroblast,AKF-PD>AKF-BR>pirfenidone
same,suppression of proliferation of rat pulmonary fibroblasts,[2],could suppress proliferation of rat pulmonary fibroblasts
same,Optical Density at 570 nm,"[2]; 100 μg/ml, 24 h",0.1654 ± 0.0143
same,Optical Density at 570 nm,"[2]; 100 μg/ml, 48 h",0.1475 ± 0.0211
same,Optical Density at 570 nm,"[2]; 500 μg/ml, 24 h",0.1342 ± 0.0237
same,Optical Density at 570 nm,"[2]; 500 μg/ml, 48 h",0.1292 ± 0.0178
same,Optical Density at 570 nm,"[2]; 1000 μg/ml, 24 h",0.1204 ± 0.0176
same,Optical Density at 570 nm,"[2]; 1000 μg/ml, 48 h",0.1201 ± 0.0342
same,order of inhibitory effect,[2]; rat pulmonary fibroblasts,AKF-PD>AKF-BR>pirfenidone
same,activity inhibiting fibroblast,fibroblast,activities inhibiting fibroblast
"CCOC(=O)[C@H](CCc1ccccc1)N[C@@H](C)C(=O)N1CCC[C@H]1C(=O)O [Enalapril, reference compound]",Histological Score for Interstitial Compartment,[3],9.21 ± 0.64
Cc1cccc(-n2cc(C)ccc2=O)c1 [5-methyl-1-(3′-methylphenyl)-2(1H)-pyridone],activity inhibiting fibroblast,fibroblast,activities inhibiting fibroblast
Cc1ccc(=O)n(-c2cccc(I)c2)c1 [1-(3′-iodophenyl)-5-methyl-2(1H)-pyridone],activity inhibiting fibroblast,fibroblast,activities inhibiting fibroblast
B1,"Schistosomo Egg Granuloma Area, Mean",[4]; granuloma with abundant eggs,83706.79 μm^2
same,"Schistosomo Egg Granuloma Area, Mean",[4]; granuloma with few eggs,32407.14 μm^2
